For assay [1], the target named is T1, CaV1.2 channel (Rattus norvegicus, UniProt P22002).
T1 construct: smooth muscle cells were freshly isolated; endogenous in cells; host or cells: freshly isolated rat tail main artery smooth muscle cells
The assay can be described thus: Voltage dependence of CaV1.2 channel steady-state activation and inactivation in rat tail artery myocytes. Type of assay: cell-based. The settings on record: for Slope inact (slope factor of inactivation) / V50 inact (50% inactivation potential): Vh −80 mV. The text has this: (§1) An Axopatch 200B patch-clamp amplifier (Molecular Devices Corporation, Sunnyvale, CA, USA) was used to generate and apply voltage pulses to the clamped cells and record the corresponding membrane currents. Recording electrodes were pulled from borosilicate glass capillaries (WPI, Berlin, Germany) and fire-polished to obtain a pipette resistance of 2–4 MΩ, when filled with an internal solution. At the beginning of each experiment, the junction potential between the pipette and bath solution was electronically adjusted to zero. After compensation for whole-cell capacitance and series resistance (between 70% and 75%), current signals were low-pass filtered at 1 kHz and digitized at 3 kHz, before being stored on a computer hard disk. Electrophysiological responses were tested at room temperature (20–22 °C).
Cells were continuously superfused with an external solution containing 0.1 mM Ca^2+ and 30 mM TEA using a peristaltic pump (LKB 2132, Bromma, Sweden) at a flow rate of 400 µL/min. The conventional whole-cell patch-clamp method was employed to voltage-clamp smooth muscle cells. The internal solution consisted of (in mM) 100 CsCl, 10 HEPES, 11 EGTA, 2 MgCl2, 1 CaCl2 (pCa 8.4), 5 Na pyruvate, 5 succinic acid, 5 oxaloacetic acid, 3 Na2ATP, and 5 phosphocreatine; pH was adjusted to 7.4 with CsOH. IBa1.2 was recorded in an external solution containing 30 mM TEA and 5 mM Ba^2+. The current was elicited with 250-ms clamp pulses (0.067 Hz) to 10 mV, from a Vh of −50 mV. Data were collected once the current amplitude had been stabilized (usually 7–10 min after the whole-cell configuration had been obtained).
Steady-state activation curves were derived from the current–voltage relationships. Conductance (G) was calculated from the equation G = IBa1.2/(Em − Erev), where: IBa1.2 is the peak current elicited by depolarizing test pulses between −50 mV and 40 mV from a Vh of −50 mV; Em is the membrane potential; and Erev is the reversal potential (estimated from the extrapolated current-voltage curves in Figure 2). Gmax is the maximal Ba^2+ conductance (calculated at potentials ≤40 mV). The G/Gmax ratio was plotted against the membrane potential and fitted to the Boltzmann equation [40]. Steady-state inactivation curves were obtained using a double-pulse protocol. Once various levels of the conditioning potential had been applied for 5 s, followed by a short (5-ms) return to the Vh of −80 mV, a test pulse (250 ms) to 10 mV was delivered to evoke the current. The delay between the conditioning potential and the test pulse allowed the full or near-complete deactivation of the channels, simultaneously avoiding partial recovery from inactivation. K^+ currents were blocked with 30 mM TEA in the external solution and Cs^+ in the internal solution. […] The osmolarity of the 30 mM TEA- and 5 mM Ba^2+-containing external solution (320 mosmol, adjusted with NaCl if required) and that of the internal solution (290 mosmol) were measured with an osmometer (Osmostat OM 6020, Menarini Diagnostics, Florence, Italy).

Assay [2] concerns rat aorta rings. The assay is described as follows: Phenylephrine-induced contraction of rat aorta rings (pharmaco-mechanical coupling). The conditions noted are these: Rattus norvegicus, 0.3 µM phenylephrine. Here is the method: The abdominal aorta was gently cleaned of adipose and connective tissues and cut into 3-mm wide rings. These were mounted in organ baths between two parallel, L-shaped, stainless-steel hooks, with one fixed in place and the other connected to an isometric transducer. Rings were allowed to equilibrate for 60 min in modified Krebs-Henseleit solution (composition in mM: 118 NaCl, 4.75 KCl, 1.19 KH2PO4, 1.19 MgSO4, 25 NaHCO3, 11.5 glucose, 2.5 CaCl2, gassed with a 95% O2–5% CO2 gas mixture to create a pH of 7.4) under a passive tension of 1 g. During this equilibration period, the solution was changed every 15 min. Isometric tension was recorded using a digital PowerLab data acquisition system (PowerLab 8/30; ADInstruments). Ring viability was assessed by recording the response to 0.3 µM phenylephrine and 60 mM KCl. Where needed, the endothelium was removed by gently rubbing the lumen of the ring with a forceps tip. This procedure was validated by adding 10 µM acetylcholine at the plateau of phenylephrine-induced contraction; a relaxation greater than 70% or less than 10% denoted the presence or absence of functional endothelium, respectively.
Aorta rings were pre-contracted pharmaco-mechanically using 0.3 µM phenylephrine and electromechanically using 25–30 mM or 60 mM KCl. Once the contraction reached a plateau, the compound was added cumulatively into the organ bath. […] The response was calculated as the percentage of phenylephrine- or KCl-induced contraction (taken as 100%).

The target of assay [3] is T1, CaV1.2 channel. The assay can be described thus: Whole-cell patch-clamp, Ba2+ current through CaV1.2 channels (IBa1.2) in rat tail artery myocytes. In kind it is cell-based. The conditions noted are these: pulses to 10 mV from Vh −50 mV. The protocol:
The tail main artery was dissected free of its connective tissue, and smooth muscle cells were freshly isolated under the following conditions. […] Cells stored in 0.05 mM Ca^2+ external solution containing 20 mM taurine and 0.5 mg/mL BSA at 4 °C under normal air were used for experiments within two days after isolation.
as §1, with “After compensation for whole-cell capacitance and series resistance (between 70% and 75%), current signals were low-pass filtered at 1 kHz and digitized at 3 kHz, before being stored on a computer hard disk.” left out
The conventional whole-cell patch-clamp method was employed to voltage-clamp smooth muscle cells. The internal solution consisted of (in mM) 100 CsCl, 10 HEPES, 11 EGTA, 2 MgCl2, 1 CaCl2 (pCa 8.4), 5 Na pyruvate, 5 succinic acid, 5 oxaloacetic acid, 3 Na2ATP, and 5 phosphocreatine; pH was adjusted to 7.4 with CsOH. IBa1.2 was recorded in an external solution containing 30 mM TEA and 5 mM Ba^2+. […] Data were collected once the current amplitude had been stabilized (usually 7–10 min after the whole-cell configuration had been obtained).
A general note: Patch clamp records ionic current or voltage across a cell membrane.

Where two headings read alike, the source gives them in different places.

T1 sequence (P22002 whole entry): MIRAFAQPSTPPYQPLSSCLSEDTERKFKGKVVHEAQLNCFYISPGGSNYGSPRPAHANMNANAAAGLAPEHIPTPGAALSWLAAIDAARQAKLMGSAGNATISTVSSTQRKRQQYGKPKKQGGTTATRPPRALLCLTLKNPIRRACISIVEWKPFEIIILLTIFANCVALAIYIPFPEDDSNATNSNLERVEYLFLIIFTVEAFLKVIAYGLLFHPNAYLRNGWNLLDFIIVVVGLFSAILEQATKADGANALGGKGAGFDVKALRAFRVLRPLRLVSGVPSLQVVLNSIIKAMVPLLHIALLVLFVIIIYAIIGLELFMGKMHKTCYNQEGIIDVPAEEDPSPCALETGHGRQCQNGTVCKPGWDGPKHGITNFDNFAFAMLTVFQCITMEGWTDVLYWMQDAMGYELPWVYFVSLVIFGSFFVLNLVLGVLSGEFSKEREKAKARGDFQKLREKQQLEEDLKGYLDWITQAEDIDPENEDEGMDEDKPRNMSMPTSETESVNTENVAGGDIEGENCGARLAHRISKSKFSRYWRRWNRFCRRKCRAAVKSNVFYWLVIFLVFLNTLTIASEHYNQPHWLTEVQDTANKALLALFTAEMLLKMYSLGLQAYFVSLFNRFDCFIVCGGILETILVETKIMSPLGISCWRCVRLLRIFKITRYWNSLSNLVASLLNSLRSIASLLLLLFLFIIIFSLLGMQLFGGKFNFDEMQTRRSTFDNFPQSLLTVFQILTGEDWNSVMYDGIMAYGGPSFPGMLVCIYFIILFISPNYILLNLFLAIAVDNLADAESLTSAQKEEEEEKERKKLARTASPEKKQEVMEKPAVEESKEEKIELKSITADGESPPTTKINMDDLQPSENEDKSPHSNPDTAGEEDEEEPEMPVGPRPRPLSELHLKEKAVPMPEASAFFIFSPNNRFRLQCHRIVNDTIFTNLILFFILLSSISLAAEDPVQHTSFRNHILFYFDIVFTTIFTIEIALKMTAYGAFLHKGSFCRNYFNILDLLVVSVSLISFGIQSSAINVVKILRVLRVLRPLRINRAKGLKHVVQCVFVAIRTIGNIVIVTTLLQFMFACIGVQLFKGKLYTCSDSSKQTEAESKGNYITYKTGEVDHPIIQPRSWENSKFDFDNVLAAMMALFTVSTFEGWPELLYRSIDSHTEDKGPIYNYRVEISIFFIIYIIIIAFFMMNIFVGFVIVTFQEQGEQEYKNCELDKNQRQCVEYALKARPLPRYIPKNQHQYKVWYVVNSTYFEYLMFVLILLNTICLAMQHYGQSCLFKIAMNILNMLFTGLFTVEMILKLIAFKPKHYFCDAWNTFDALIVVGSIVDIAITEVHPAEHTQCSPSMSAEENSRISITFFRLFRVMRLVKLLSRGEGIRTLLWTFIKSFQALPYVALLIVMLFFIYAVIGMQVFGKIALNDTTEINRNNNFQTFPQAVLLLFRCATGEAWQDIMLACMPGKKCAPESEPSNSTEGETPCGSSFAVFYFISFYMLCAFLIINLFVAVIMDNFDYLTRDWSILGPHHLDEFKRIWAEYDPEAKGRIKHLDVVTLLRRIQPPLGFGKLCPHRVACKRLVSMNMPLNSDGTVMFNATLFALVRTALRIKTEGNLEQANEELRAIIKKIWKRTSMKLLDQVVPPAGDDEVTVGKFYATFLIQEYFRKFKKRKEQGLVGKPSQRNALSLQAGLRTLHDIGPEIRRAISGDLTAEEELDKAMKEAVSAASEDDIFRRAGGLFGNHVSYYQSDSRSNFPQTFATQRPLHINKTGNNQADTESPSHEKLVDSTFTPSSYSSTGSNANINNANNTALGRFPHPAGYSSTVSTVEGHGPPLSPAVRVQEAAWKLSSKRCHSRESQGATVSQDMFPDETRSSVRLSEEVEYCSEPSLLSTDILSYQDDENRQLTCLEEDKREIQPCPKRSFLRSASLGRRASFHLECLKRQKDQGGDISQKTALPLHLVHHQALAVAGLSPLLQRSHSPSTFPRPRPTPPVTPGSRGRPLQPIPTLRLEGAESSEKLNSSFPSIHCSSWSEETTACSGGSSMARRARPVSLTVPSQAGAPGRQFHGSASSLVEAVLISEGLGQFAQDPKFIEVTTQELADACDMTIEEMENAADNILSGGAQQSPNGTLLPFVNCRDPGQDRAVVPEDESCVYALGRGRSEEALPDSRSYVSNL
T1 sequence (P54290 25-944 partner limits assumed): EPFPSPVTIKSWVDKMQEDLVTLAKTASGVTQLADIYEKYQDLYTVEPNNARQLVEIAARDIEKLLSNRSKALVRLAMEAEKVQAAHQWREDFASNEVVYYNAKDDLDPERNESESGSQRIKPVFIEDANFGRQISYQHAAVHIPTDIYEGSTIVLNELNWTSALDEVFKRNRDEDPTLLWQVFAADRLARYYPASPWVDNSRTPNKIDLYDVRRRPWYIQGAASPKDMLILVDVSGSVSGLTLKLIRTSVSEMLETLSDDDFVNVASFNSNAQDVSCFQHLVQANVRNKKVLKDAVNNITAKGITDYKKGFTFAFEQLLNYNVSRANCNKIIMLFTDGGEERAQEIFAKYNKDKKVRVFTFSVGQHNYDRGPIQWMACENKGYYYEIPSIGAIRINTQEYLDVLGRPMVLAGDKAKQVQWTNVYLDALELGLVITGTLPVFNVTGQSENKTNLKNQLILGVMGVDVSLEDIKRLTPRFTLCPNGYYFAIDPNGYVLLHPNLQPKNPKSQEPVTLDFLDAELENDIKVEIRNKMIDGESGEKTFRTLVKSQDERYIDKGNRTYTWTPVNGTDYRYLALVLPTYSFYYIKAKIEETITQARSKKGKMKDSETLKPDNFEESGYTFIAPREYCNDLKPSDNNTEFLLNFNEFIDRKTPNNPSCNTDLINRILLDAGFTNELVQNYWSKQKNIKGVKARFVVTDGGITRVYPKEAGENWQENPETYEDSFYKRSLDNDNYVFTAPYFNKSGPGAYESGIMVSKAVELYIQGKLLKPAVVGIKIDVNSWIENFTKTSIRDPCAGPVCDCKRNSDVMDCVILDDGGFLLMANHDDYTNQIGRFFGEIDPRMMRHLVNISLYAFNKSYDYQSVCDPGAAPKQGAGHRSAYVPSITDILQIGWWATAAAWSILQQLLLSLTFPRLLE
T1 sequence (P54290 945-1091 partner limits assumed): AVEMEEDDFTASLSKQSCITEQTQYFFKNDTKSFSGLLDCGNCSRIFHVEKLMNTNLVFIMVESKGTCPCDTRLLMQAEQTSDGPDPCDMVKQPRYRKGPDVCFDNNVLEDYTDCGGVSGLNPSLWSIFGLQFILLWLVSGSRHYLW
T1 sequence (P54287 whole entry partner): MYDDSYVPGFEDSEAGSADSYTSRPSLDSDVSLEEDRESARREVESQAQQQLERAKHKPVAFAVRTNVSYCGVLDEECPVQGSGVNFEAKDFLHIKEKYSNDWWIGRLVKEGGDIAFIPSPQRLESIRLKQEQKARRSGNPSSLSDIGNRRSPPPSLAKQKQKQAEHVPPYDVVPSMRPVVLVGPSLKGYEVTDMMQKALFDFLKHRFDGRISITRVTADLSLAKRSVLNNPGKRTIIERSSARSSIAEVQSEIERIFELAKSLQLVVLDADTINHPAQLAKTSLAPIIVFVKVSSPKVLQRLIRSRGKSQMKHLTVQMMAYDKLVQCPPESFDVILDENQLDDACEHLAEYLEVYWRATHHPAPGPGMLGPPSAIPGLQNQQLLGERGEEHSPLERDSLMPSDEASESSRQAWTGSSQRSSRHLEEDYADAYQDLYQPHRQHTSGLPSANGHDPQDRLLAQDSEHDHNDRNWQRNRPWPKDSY

In the case of `CC1(C)CCC[C@]2(C)[C@@H](CC(=O)Nc3ccccc3-n3cccc3)[C@](C)(O)CC[C@@H]12` [Compound 7], the “Slope act (slope factor of activation)” value in assay [1] (10 µM compound) came out at 8.36 ± 0.75. The figures for the “Slope inact (slope factor of inactivation)” value in assay [1] (10 µM compound) and in assay [1] (30 µM compound) were −7.53 ± 0.24 and −7.70 ± 0.51, respectively. Besides, the “V50 inact (50% inactivation potential)” value is −30.24 ± 1.29 mV in assay [1] (10 µM compound) and −38.29 ± 2.00 mV in assay [1] (30 µM compound). For the same compound, the “Ba2+ window current, potential of the peak” value in assay [1] (10 µM, control peaked at −10 mV) is on record as “about −15 mV”. In assay [1] (10 µM, control relative amplitude 0.078), the “Ba2+ window current, relative amplitude at peak” value is 0.021. In addition, the maximal effect (Emax) is not above 60% in assay [2] (endothelium-denuded rat aorta rings, read-out: Emax (percent maximal inhibition), phenylephrine-induced contraction, −Endothelium); 8.6 ± 9.3% in assay [2] (endothelium-intact rat aorta rings, read-out: Emax (percent maximal inhibition), phenylephrine-induced contraction, +Endothelium); 90.5 ± 5.8% in assay [3] (read-out: Emax (percent maximal inhibition), IBa1.2). Besides, the concentration for half-maximal inhibition (IC50) in assay [3] (read-out: IC50, IBa1.2 inhibition) was 13.2 ± 5.4 µM.

The term Emax denotes the maximal effect, on the per cent scale that the assay sets. A word on the IC50: it is the concentration at which inhibition is half-maximal.
